Data taken from PubChem BioAssay AID2060485 (Molecular Pharmacology Branch, DTP, NCI, 2025).

Test system: A375 multi-cell spheroids with HUVEC/MSC, viability
Assay: Anticancer human tumor A375 cell line growth inhibition [GQUAD];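 note: spheroids exposed to compounds for seven days before readout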
Conditions: for IC50: curve of first compound; for viability, T/C: stronger effect = lower value
Method in brief: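 Viability of tumor cells grown as complex spheroids with endothelial and stromal cells, exposed to drug combinations. Top concentration at or near clinical Cmax (else 10 microM), diluted in half-log increments.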

[1] = second compound 0.0316 µM, first compound 0.0316 µM
[2] = second compound 0.0316 µM, first compound 0.1 µM
[3] = second compound 0.0316 µM, first compound 0.316 µM
[4] = second compound 0.0316 µM, first compound 1 µM
[5] = second compound 0.0316 µM, first compound 3.16 µM
[6] = second compound 0.0316 µM, first compound 10 µM
[7] = second compound 0.1 µM, first compound 0.0316 µM
[8] = second compound 0.1 µM, first compound 0.1 µM
[9] = second compound 0.1 µM, first compound 0.316 µM
[10] = second compound 0.1 µM, first compound 1 µM
[11] = second compound 0.1 µM, first compound 3.16 µM
[12] = second compound 0.1 µM, first compound 10 µM
[13] = second compound 0.316 µM, first compound 0.0316 µM
[14] = second compound 0.316 µM, first compound 0.1 µM
[15] = second compound 0.316 µM, first compound 0.316 µM
[16] = second compound 0.316 µM, first compound 1 µM
[17] = second compound 0.316 µM, first compound 3.16 µM
[18] = second compound 0.316 µM, first compound 10 µM
[19] = second compound 1 µM, first compound 0.0316 µM
[20] = second compound 1 µM, first compound 0.1 µM
[21] = second compound 1 µM, first compound 0.316 µM
[22] = second compound 1 µM, first compound 1 µM
[23] = second compound 1 µM, first compound 3.16 µM
[24] = second compound 1 µM, first compound 10 µM
[25] = second compound 3.16 µM, first compound 0.0316 µM
[26] = second compound 3.16 µM, first compound 0.1 µM
[27] = second compound 3.16 µM, first compound 0.316 µM
[28] = second compound 3.16 µM, first compound 1 µM
[29] = second compound 3.16 µM, first compound 3.16 µM
[30] = second compound 3.16 µM, first compound 10 µM
[31] = second compound 10 µM, first compound 0.0316 µM
[32] = second compound 10 µM, first compound 0.1 µM
[33] = second compound 10 µM, first compound 0.316 µM
[34] = second compound 10 µM, first compound 1 µM
[35] = second compound 10 µM, first compound 3.16 µM
[36] = second compound 10 µM, first compound 10 µM

CCCS(=O)(=O)Nc1ccc(F)c(C(=O)c2c[nH]c3ncc(-c4ccc(Cl)cc4)cc23)c1F + Cc1cnc(CNC(=O)c2c(=O)c3ccc(N4CCCN(C)CC4)nc3n3c2sc2ccccc23)cn1
IC50 (second compound 0.0316 µM): < 31.6 nM
IC50 (second compound 0.1 µM): < 31.6 nM
IC50 (second compound 0.316 µM): < 31.6 nM
IC50 (second compound 1 µM): < 31.6 nM
IC50 (second compound 3.16 µM): < 31.6 nM
IC50 (second compound 10 µM): < 31.6 nM
viability, T/C [1]: 34.1%
viability, T/C [2]: 16.2%
viability, T/C [3]: 9.28%
viability, T/C [4]: 8.24%
viability, T/C [5]: 5.87%
viability, T/C [6]: 7.01%
viability, T/C [7]: 27.9%
viability, T/C [8]: 14.7%
viability, T/C [9]: 10.1%
viability, T/C [10]: 6.6%
viability, T/C [11]: 5.83%
viability, T/C [12]: 5.93%
viability, T/C [13]: 23.5%
viability, T/C [14]: 14%
viability, T/C [15]: 7.97%
viability, T/C [16]: 6.65%
viability, T/C [17]: 5.74%
viability, T/C [18]: 3.51%
viability, T/C [19]: 21.8%
viability, T/C [20]: 13.2%
viability, T/C [21]: 8.1%
viability, T/C [22]: 6.44%
viability, T/C [23]: 6.08%
viability, T/C [24]: 2.62%
viability, T/C [25]: 16.2%
viability, T/C [26]: 11.3%
viability, T/C [27]: 8.15%
viability, T/C [28]: 7.91%
viability, T/C [29]: 6.35%
viability, T/C [30]: 0.08%
viability, T/C [31]: 16%
viability, T/C [32]: 13.5%
viability, T/C [33]: 8.99%
viability, T/C [34]: 7.73%
viability, T/C [35]: 6.2%
viability, T/C [36]: 0.13%

COc1cccc2c1C(=O)c1c(O)c3c(c(O)c1C2=O)CC(O)(C(=O)CO)CC3OC1CC(N)C(O)C(C)O1 (centres undefined) + Cc1cnc(CNC(=O)c2c(=O)c3ccc(N4CCCN(C)CC4)nc3n3c2sc2ccccc23)cn1
IC50 (second compound 0.0316 µM): 168 nM
IC50 (second compound 0.1 µM): 56.2 nM
IC50 (second compound 0.316 µM): < 31.6 nM
IC50 (second compound 1 µM): < 31.6 nM
IC50 (second compound 3.16 µM): < 31.6 nM
IC50 (second compound 10 µM): < 31.6 nM
viability, T/C [1]: 109%
viability, T/C [2]: 64.1%
viability, T/C [3]: 31.2%
viability, T/C [4]: 20.5%
viability, T/C [5]: 1.64%
viability, T/C [6]: 0.08%
viability, T/C [7]: 59.3%
viability, T/C [8]: 38.7%
viability, T/C [9]: 30.2%
viability, T/C [10]: 17.9%
viability, T/C [11]: 1%
viability, T/C [12]: 0.06%
viability, T/C [13]: 41.5%
viability, T/C [14]: 33.4%
viability, T/C [15]: 27.4%
viability, T/C [16]: 16.1%
viability, T/C [17]: 0.21%
viability, T/C [18]: 0.08%
viability, T/C [19]: 37.1%
viability, T/C [20]: 30.9%
viability, T/C [21]: 27.4%
viability, T/C [22]: 15.2%
viability, T/C [23]: 0.07%
viability, T/C [24]: 0.09%
viability, T/C [25]: 33%
viability, T/C [26]: 31.4%
viability, T/C [27]: 24.5%
viability, T/C [28]: 14.9%
viability, T/C [29]: 0.12%
viability, T/C [30]: 0.13%
viability, T/C [31]: 25.6%
viability, T/C [32]: 24.9%
viability, T/C [33]: 20.4%
viability, T/C [34]: 13.7%
viability, T/C [35]: 0.21%
viability, T/C [36]: 0.22%
